Experimental data as given in patent US9630896B2, “2,5-dialkyl-4-H/halo/ether-phenol compounds” (Tansna Therapeutics Inc, priority 2013, dated 2017).

Tests used:
[1] = system: 6 Hz 32 mA Epilepsy Model (electrically induced psychomotor seizure); assay: Minimal clonic seizure (6 Hz, 32 mA) test; format: in vivo, Mouse; details: for animals protected/animals tested: 6 Hz 32 mA, Mouse, IP; for ED50: Mus musculus, ip, 6 Hz 32 mA dose response (Test 7-2), mice
Description: (§1) 1. Minimal Clonic Seizure (6 Hz, 32 mA or 44 mA) Test
(§2) Test compounds are pre-administered to mice via i.p. injection. At varying times, individual mice (four per time point) are challenged with sufficient current delivered through corneal electrodes to elicit a psychomotor seizure in 97% of animals (32 mA or 44 mA for 3 s) (Toman J E P, Everett G M, Richards R K: The Search for New Drugs against Epilepsy. Texas Reports on Biology and Medicine 1952; 10:96-104). Untreated mice will display seizures characterized by a minimal clonic phase followed by stereotyped, automatistic behaviors described originally as being similar to the aura of human patients with partial seizures. Animals not displaying this behavior are considered protected. The test compounds are evaluated quantitatively by measuring the responses at varying doses at a determined time of peak effect (TPE).

[2] = system: Corneal Kindled Mouse (Stage 5 seizures); assay: Corneal kindled mouse (focal seizures) - Test 26; format: in vivo; details: IP, TPE 0.5 hrs
Description: 2. Corneal Kindling (Focal Seizures)
Mice are kindled electrically with 3 sec stimulation, 8 mA, 60 Hz, and corneal electrodes to a criterion of 10 consecutive Stage 5 seizures (facial clonus and head nodding progressing to forelimb clonus, and finally rearing and falling accompanied by a generalized clonic seizure as described by Racine (Racine R J: Modification of Seizure Activity by Electrical Stimulation. II. Motor Seizure. Electroen Clin Neuro 1972; 32:281-94). Stage 5 is generally reached after twice daily stimulation for 8 days. With continued stimulation once a day, animals usually progress to a reproducible Stage 5 after 10-14 additional days. At least 72 hours after the mice have been kindled, the test substance is administered either intraperitoneal (i.p.) or per os (p.o.) and, at the previously determined TPE, each animal is given the electrical stimulus indicated above. Following stimulation, the animals are observed for the presence or absence of the rearing and falling criteria of a Stage 5 seizure. Treated animals not displaying a Stage 3, 4, or 5 seizure are considered protected. The dose of the test substance is varied between the limits of 0 and 100% efficacy, and the ED50 and 95% confidence intervals calculated by probit analysis. Mean values and the S.E.M. are calculated for the length of clonus and seizure duration and p values are determined by the Student's t-test.

[3] = system: MES Model (maximal electroshock seizure); assay: Maximal electroshock seizure (MES) test; format: in vivo; details: Mouse, IP
Procedure: 3. Maximal Electroshock Seizure (MES) Test
MES test is performed as in the Minimal Clonic Seizure (6 Hz) test, but the MES test utilizes a current of 50 mA (mice) or 150 mA (rats), frequency of 50-60 Hz, and a stimulation time of 0.2 seconds. Upon stimulation, untreated test subjects display immediate severe tonic seizure (including maximal extension of legs) and the body becomes stiffened for roughly 10-15 seconds. Next, clonic seizures start (including shaking of body and paddling movements of the hind limbs) and may last 20-30 seconds (Castel-Branco M M, Alves G L, Figueiredo I V, Falcao A C, Caramona M M: The Maximal Electroshock Seizure (MES) Model in the Preclinical Assessment of Potential New Antiepileptic Drugs. Methods and Findings in Experimental and Clinical Pharmacology 2009; 31:101-06). Test subjects that display reduced or eliminated symptoms of MES-type seizures during and/or after stimulation are considered protected.

[4] = system: minimal muscular or neurological impairment (rotorod); assay: Acute toxicity - minimal motor impairment (rotorod); format: in vivo; details: for Toxicity Ratio: Mouse
Description: 4. Acute Toxicity-Minimal Motor Impairment
To assess a compound's undesirable side effects (toxicity), animals are monitored for overt signs of impaired neurological or muscular function. In mice, the rotorod (Dunham N W, Miya T S: A Note on a Simple Apparatus for Detecting Neurological Deficit in Rats and Mice. Journal of the American Pharmaceutical Association 1957; 46:208-09), procedure is used to disclose minimal muscular or neurological impairment. When a mouse is placed on a rod that rotates at a speed of 6 rpm, the animal can maintain its equilibrium for long periods of time. The animal is considered toxic if it falls off this rotating rod three times during a 1-min period. In rats, minimal motor deficit is indicated by ataxia, which is manifested by an abnormal, uncoordinated gait. Rats used for evaluating toxicity are examined before the test drug is administered, since individual animals may have peculiarities in gait, equilibrium, placing response, etc., which might be attributed erroneously to the test substance.

[5] = system: 6 Hz 32 mA Epilepsy Model (electrically induced psychomotor seizure); assay: Minimal clonic seizure (6 Hz, 32 mA) test; format: in vivo; details: Mouse, Oral, 100 mg/kg, TPE N/A
[6] = system: 6 Hz 44 mA Epilepsy Model (electrically induced psychomotor seizure); assay: Minimal clonic seizure (6 Hz, 44 mA) test; format: in vivo; details: Mouse, IP, 100 mg/kg
Description: as §1, §2

[7] = MES screen table, IP, 100 mg/kg, TPT N/A
[8] = Test 7-1 table, IP, 100 mg/kg, TPT N/A
[9] = Test 7-1 table, IP, 300 mg/kg, TPT 0.5 hrs
[10] = Test 7-3 table, IP, 100 mg/kg, TPT N/A
[11] = Test 7-1 table, IP, 30 mg/kg, TPT NA

Compound	animals protected/animals tested ([1]; 100 mg/kg, TPE 0.5 hrs)	ED50 ([1]; TPE 0.5 hrs) [mg/kg]	animals protected/animals tested ([3]; 100 mg/kg, TPE 0.25 hrs)	Toxicity Ratio [4, 7]	Toxicity Ratio [4, 8]	animals protected/animals tested ([1]; 30 mg/kg, TPE 0.5 hrs)	animals protected/animals tested ([1]; 300 mg/kg, TPE 0.5 hrs)	animals protected/animals tested ([3]; 100 mg/kg, TPE 0.5 hrs)	animals protected/animals tested ([3]; 300 mg/kg, TPE 0.5 hrs)	Toxicity Ratio [4, 9]	Toxicity Ratio [4, 10]	Toxicity Ratio [4, 11]	other results
Cc1cc(Br)c(C(C)C)cc1O [Ex. 9, 4-bromo-5-isopropyl-2-methyl phenol]	3/4	19	1/4	0/8	0/4								Average Seizure Score ([2]; 19 mg/kg): 3.75; Seizure Ratio ([2]; 19 mg/kg): 1/4; Toxicity Ratio ([4]; Test 7-1 table, Oral, 100 mg/kg, TPT N/A): 0/4; TD50 at 6 hrs ([4]; mouse, in vivo, intraperitoneal, Test 7-2 table, TPT 6 hrs): 398 mg/kg; animals protected/animals tested [5]: 0/4
CC(C)c1cc(O)c(C(C)(C)C)cc1Br [Ex. 204, 4-Bromo-2-tert-butyl-5-isopropyl-phenol]	2/4		1/4	0/8	0/4								
CCCc1ccc(C(C)C)cc1O [Ex. 95, 5-Isopropyl-2-propyl-phenol]						0/4	3/4	0/4	1/4	3/8			animals protected/animals tested ([1]; 10 mg/kg, TPE 0.5 hrs): 3/4; animals protected/animals tested ([3]; 30 mg/kg, TPE 0.5 hrs): 0/4; Toxicity Ratio ([4]; Test 7-1 table, IP, 10 mg/kg, TPT 0.5 hrs): 1/8; Toxicity Ratio ([4]; Test 7-1 table, IP, 30 mg/kg, TPT 0.5 hrs): 0/8
Cc1cc(O)c(C(C)C)cc1Br [Ex. 132, 4-Bromo-2-isopropyl-5-methyl-phenol]	3/4	28			0/4						0/4		animals protected/animals tested ([6]; TPE 2 hrs): 2/4; Average Seizure Score ([2]; 28 mg/kg): 4.5; Seizure Ratio ([2]; 28 mg/kg): 1/4; animals protected/animals tested ([3]; 100 mg/kg, TPE 1 hrs): 2/4; Toxicity Ratio ([4]; MES screen table, IP, 100 mg/kg, TPT 0.5 hrs): 1/8; TD50 at 4 hrs ([4]; mouse, in vivo, intraperitoneal, Test 7-2 table, TPT 4 hrs): > 200 mg/kg
CCc1cc(Br)c(C(C)C)cc1O [Ex. 64, 4-Bromo-2-ethyl-5-isopropyl-phenol]	3/4			0/8	0/8	1/4	4/4	1/4	2/4	6/8	0/4	0/8	animals protected/animals tested ([6]; TPE 0.25 hrs): 1/4; animals protected/animals tested ([3]; 30 mg/kg, TPE NA): 0/4; Toxicity Ratio ([4]; MES screen table, IP, 30 mg/kg, TPT NA): 0/8; Toxicity Ratio ([4]; MES screen table, IP, 300 mg/kg, TPT 0.5 hrs): 6/8
Cc1cc(Br)c(C(C)(C)C)cc1O [Ex. 25, 4-Bromo-5-tert-butyl-2-methyl-phenol]	2/4				0/8	2/4				4/8		0/8	animals protected/animals tested ([1]; 300 mg/kg, TPE 2 hrs): 4/4
